# Patent US20060167062A1, “Enema preparation” (priority 2003, published 2006)
# Legend:
# rat model of colitis [1] = test: Rat model of colitis (TNBS-induced), incidence of diarrhea, oral administration; type: in vivo
# Procedure: A rat model of colitis was prepared in accordance with the method by Morris et al. (Morris GP et al., Hapten-induced model of chronic inflammation and ulceration in the rat colon. Gasteroenterology, 96: 795-803, 1989). Specifically, the rats were fasted for approximately 24 hr and anesthetized with ether. A Teflon catheter (registered trade mark) was inserted into the lumen of the colon via the anus. The tip of the catheter was advanced to 8 cm from the anus, and 0.25 ml of TNBS solution (final concentration of 60 mg/mL in 50% ethanol) was injected into the colon. Rats were held in a vertical position for 30 seconds after TNBS injection (Day-0).
# On the Day-B, the rats were anesthetized with ether, and sacrificed by exsanguination. The colon, from the end of the cecum to the anus, was excised, opened by a longitudinal incision, and the feces were macroscopically assessed at the excision of colons. When feces were not solid, it ws judged as diarrhea. Rats with no feces in the colon were excluded from diarrhea evaluation.
# rat model of colitis [2] = test: Rat model of colitis (TNBS-induced), incidence of diarrhea, enema (intra-rectal) administration; type: in vivo; settings: for incidence of diarrhea: vehicle control 73.9%
# Procedure: A rat model of colitis was prepared in accordance with the method by Morris et al. (Morris GP et al., Hapten-induced model of chronic inflammation and ulceration in the rat colon. Gasteroenterology, 96: 795-803, 1989). Specifically, the rats were fasted for approximately 24 hr and anesthetized with ether. A Teflon catheter (registered trade mark) was inserted into the lumen of the colon via the anus. The tip of the catheter was advanced to 8 cm from the anus, and 0.25 ml of TNBS solution (final concentration of 60 mg/mL in 50% ethanol) was injected into the colon. Rats were held in a vertical position for 30 seconds after TNBS injection (Day-0). One day after an injection of TNBS (Day-1), rats were randomly allocated to the four groups described below based on body weight using a stratified random sampling method. The groups were as follows: The pharmacologically active ingredient and its vehicle were delivered at 8 cm orad to the anal verge of conscious rats through a Teflon catheter (registered trade mark) inserted into the lumen of the colon via the anus. They were administered once daily in the morning for 7 consecutive days from Day-1. On the Day-B, the rats were anesthetized with ether, and sacrificed by exsanguination. The colon, from the end of the cecum to the anus, was excised, opened by a longitudinal incision, and the feces were macroscopically assessed at the excision of colons. When feces were not solid, it ws judged as diarrhea. Rats with no feces in the colon were excluded from diarrhea evaluation. The results of the incidence of diarrhea were expressed as the proportion of rats with diarrhea in each group. Statistical analysis was performed between the vehicle control group (Group A) and the groups administered with the pharmacologically active ingredient (Group B to D) using Fisher's exact test (two-sided) to which Bonferroni correction, which takes multiplicity into consideration, was applied. Statistical significance is defined as p<0.05.
compound,measurement,setting,value
"CCOc1ccc(-c2nc(-c3cccc(C(=O)O)n3)cs2)cc1OCC [pharmacologically active ingredient, 6-[2-(3,4-diethoxyphenyl)thiazol-4-yl]pyridine-2-carboxylic acid]",incidence of diarrhea with oral administration,rat model of colitis [1]; 1 mg/kg/day,significantly effective
same,incidence of diarrhea with oral administration,rat model of colitis [1]; lower than 1 mg/kg/day,no significant decrease
same,incidence of diarrhea,"rat model of colitis [2]; Group B, 0.1 mg/kg/day enema once daily for 7 consecutive days from Day-1",33.3%
same,incidence of diarrhea,"rat model of colitis [2]; Group C, 0.3 mg/kg/day enema once daily for 7 consecutive days from Day-1",20.0%
same,incidence of diarrhea,"rat model of colitis [2]; Group D, 1 mg/kg/day enema once daily for 7 consecutive days from Day-1",20.0%
same,incidence of diarrhea compared with the vehicle control group,"rat model of colitis [2]; Groups B to D, 0.1 to 1 mg/kg/day enema, Fisher's exact test with Bonferroni correction, p<0.05",suppressed significantly
same,"amount with significant disorder-suppressing effect, intra-rectal relative to oral administration","rat model of colitis [2]; intra-rectal versus oral, rat model of colitis",one tenth
